# Data from patent EP4722219A1 (Gan & Lee Pharmaceuticals Co., Ltd., priority 2023, dated 2024).
# Read-outs that look alike come from different tables or passages of the source.
# How the values were obtained:
# SMARCA2 [1] = molecular target: T1, SMARCA2 (Homo sapiens, UniProt P51531); assay: SMARCA2 degradation in HeLa cells (Western blot); type: cell-based; set-up: endogenous in cells; conditions: 4 hours
# Method: (§1) Test Example 10 Degradation rate (%) of SMARCA2/4 by the PROTAC compounds of the present invention in HeLa cells and SW1573 cells
# (§2) HeLa cells were seeded at 1.2 x 10^5 cells/well in a 6-well plate. 2 mL of EMEM medium supplemented with 10% FBS was added to each well and the culture dish was incubated overnight to allow the cells to adhere. The next day, 1 µL of 160 µM and 1 µL of 2 µM compound were added to the corresponding wells, resulting in final compound concentrations of 80 nM and 1 nM, respectively, and a final DMSO concentration of 0.05%. The cells were returned to the incubator and incubated for another 4 hours.
# (§3) After 4 hours, cells were harvested, the culture medium was aspirated, and the cells were rinsed once with 1 mL/well PBS. The PBS was aspirated, and 40 µL/well of RIPA lysis buffer containing protease inhibitors was added. After lysis and centrifugation, total protein extracts were obtained, and protein concentration in the extracts was determined by BCA assay. Protein electrophoresis was performed by SDS-PAGE, followed by constant voltage electrophoresis at 100 V for 60 minutes and the protein was then transferred to a PVDF membrane. The PVDF membrane was blocked in 5% skim milk powder for 1 hour at room temperature. Primary antibodies (SMARCA2: CST#11966S, SMARCA4: CST#49360S, GAPDH: CST#5174S) were added and incubated overnight at 4°C. After washing the membrane, secondary antibodies were added and incubated at room temperature for 1 hour (protected from the light). After washing, the membrane was exposed using an Odyssey luminometer. Grayscale analysis of bands was performed using Image Studio software.
# (§4) The degradation rate (%) of SMARCA2/4 by the PROTAC compounds of the present invention in HeLa cells and SW1573 cells is shown in Table 10. Table 10 Degradation rate of SMARCA2/4 by PROTAC compounds of the present invention in HeLa cells and SW1573 cells (%)
# SMARCA2 [2] = molecular target: T1, SMARCA2; assay: SMARCA2 degradation in SW1573 cells (Western blot); type: cell-based; set-up: endogenous in cells; host or cells: SW1573; conditions: 24 hours
# Method: as §1
# as §2, with “SW1573” for “HeLa”, “2x10^5Cells/well” for “1.2 x 10^5 cells/well”, “and” for “and the culture dish”, “cell attachment.” for “the cells to adhere.”, “wells for treatment,” for “wells,”, “24” for “4”
# as §3, with “After 24” for “After 4”, “the” for “the culture”
# as §4
# CRBN protein = CRBN protein (Homo sapiens, UniProt Q96SW2); assay: Binding activity to E3 ubiquitin ligase CRBN (HTRF competitive binding kit, Thalidomide-Red)
# From the text: Binding activity of the E3 ligase inhibitor disclosed in the present invention to E3 ubiquitin ligase CRBN
# CRBN binding activity test kit (CEREBLON BINDING KITS (PE, 64BD CRBN PEG).
# The detection is based on homogeneous time-resolved fluorescence (HTRF) technology.
# This kit uses a europium-labeled GST antibody (GST Eu Cryptate Antibody) as the donor and XL665-labeled thalidomide (Thalidomide-Red reagent) as the receptor. The donor binds to the GST-tagged CRBN protein.
# The donor and receptor were each diluted 50-fold using the buffer provided in the kit (PROTAC binding buffer 1). The CRBN protein was diluted 45-fold. An 8mM solution of the compound disclosed herein was diluted 10-fold using the diluent provided in the kit (1X diluent), followed by 7 successive 5-fold serial dilutions of the resulting solution.
# The ratio of the acceptor and donor emission signals was calculated for each individual well.
# IC50 values was calculated based on compound concentration, Ratio, and coefficient of variation using GraphPad Prism.
# [3] = competition with XL665-labeled thalidomide for GST-tagged CRBN protein, HTRF, 3 hours at room temperature, read-out: IC50
Compound,Degradation rate of SMARCA2 in HeLa cells (%) (SMARCA2 [1]; 1 nM),Degradation rate of SMARCA2 in HeLa cells (%) (SMARCA2 [1]; 80 nM),Degradation rate of SMARCA2 in SW1573 cells (%) (SMARCA2 [2]; 1 nM),Degradation rate of SMARCA2 in SW1573 cells (%) (SMARCA2 [2]; 80 nM),IC50 (CRBN protein; [3]) [µM],IC50 (CRBN protein) [µM]
"Cn1c(=O)n(C2CCC(=O)NC2=O)c2ccc3c(c21)OCC31CCN(C2CC3(CCC(C#Cc4cc(-c5ccccc5O)nnc4N)CC3)C2)CC1 (stereo not shown) [SM-P-26, 3-(1'-(7-((3-amino-6-(2-hydroxyphenyl)pyridazin-4-yl)ethynyl)spiro[3.5]nonan-2-yl)-1-methyl-2-oxo-1,2-dihydro-3H,7H-spiro[benzofuro[6,7-d]imidazole-6,4'-piperidin]-3-yl)piperidine-2,6-dione]",100,99,100,99,–,–
"Cn1c(=O)n(C2CCC(=O)NC2=O)c2cc3c(cc21)C1(CCN(C2CC4(CCC(C#Cc5cc(-c6ccccc6O)nnc5N)CC4)C2)CC1)CO3 (stereo not shown) [SM-P-4, 3-(1'-(7-((3-amino-6-(2-hydroxyphenyl)pyridazin-4-yl)ethynyl)spiro[3.5]nonan-2-yl)-1-methyl-2-oxo-1,2-dihydro-3H,6H-spiro[benzofuro[5,6-d]imidazole-7,4'-piperidin]-3-yl)piperidine-2,6-dione]",100,99,100,100,–,–
"Cn1c(=O)n(C2CCC(=O)NC2=O)c2cc3c(cc21)C1(CCN(C[C@H]2CC[C@H](Cn4cc(-c5cc(-c6ccccc6O)nnc5N)cn4)CC2)CC1)CO3 (stereo partly shown) [SM-P-30, 3-(1'-(((1r,4r)-4-((4-(3-amino-6-(2-hydroxyphenyl)pyridazin-4-yl)-1H-pyrazol-1-yl)methyl)cyclohexyl)methyl)-1-methyl-2-oxo-1,2-dihydro-3H,6H-spiro[benzofuro[5,6-d]imidazole-7,4'-piperidin]-3-yl)piperidine-2,6-dione]",99,90,99,97,–,–
Cn1c(=O)n(C2CCC(=O)NC2=O)c2ccc3c(c21)OCC31CCN(C[C@H]2CC[C@H](n3cc(-c4cc(-c5ccccc5O)nnc4N)cn3)CC2)CC1 (stereo partly shown) [SM-P-35],100,99,100,100,–,–
Cn1c(=O)n(C2CCC(=O)NC2=O)c2cc3c(cc21)C1(CCN(C[C@H]2CC[C@H](n4cc(-c5cc(-c6ccccc6O)nnc5N)cn4)CC2)CC1)CO3 (stereo partly shown) [SM-P-36],99,97,100,98,–,–
"Cn1c(=O)n(C2CCC(=O)NC2=O)c2cc3c(cc21)C1(CCN(C2CN(c4cc(-c5ccccc5O)nnc4N)C2)CC1)CO3 (stereo not shown) [SM-P-38, 3-(1'-(1-(3-amino-6-(2-hydroxyphenyl)pyridazin-4-yl)azetidin-3-yl)-1-methyl-2-oxo-1,2-dihydro-3H,6H-spiro[benzofuro[5,6-d]imidazole-7,4'-piperidin]-3-yl)piperidine-2,6-dione]",-6,10,24,29,–,–
"Cn1c(=O)n(C2CCC(=O)NC2=O)c2ccc3c(c21)OCC31CCN(C[C@H]2CC[C@H](Cn3cc(-c4cc(-c5ccccc5O)nnc4N)cn3)CC2)CC1 (stereo partly shown) [SM-P-29, 3-(1'-(((1r,4r)-4-((4-(3-amino-6-(2-hydroxyphenyl)pyridazin-4-yl)-1H-pyrazol-1-yl)methyl)cyclohexyl)methyl)-1-methyl-2-oxo-1,2-dihydro-3H,7H-spiro[benzofuro[6,7-d]imidazole-6,4'-piperidin]-3-yl)piperidine-2,6-dione]",100,90,100,99,–,–
Nc1nnc(-c2ccccc2O)cc1C#CC1CCC2(CC1)CC(N1CCC3(CC1)COc1cc(C(=O)N[C@H]4CCC(=O)NC4=O)c(F)cc13)C2 (stereo partly shown) [SM-P-8],28,64,9,61,–,–
"(R) -N-((S)-2,6-Dioxyhesperidin-3-yl)-9-methoxy-6-methyl-2,3,4,4a,5,6-hexahydro-1H-pyrazino[1,2-a]quinoline-8-carboxamide [Compound B12]",–,–,–,–,37.3,–
O=C1CCC(N2Cc3c(ccc4c3OCC43CCC4(CCNCC4)CC3)C2=O)C(=O)N1 (stereo not shown) [Compound D8],–,–,–,–,–,0.56
"Cn1c(=O)n(C2CCC(=O)NC2=O)c2ccc3c(c21)OCC31CCN(C2CN(c3cc(-c4ccccc4O)nnc3N)C2)CC1 (stereo not shown) [SM-P-37, 3-(1'-(1-(3-amino-6-(2-hydroxyphenyl)pyridazin-4-yl)azetidin-3-yl)-1-methyl-2-oxo-1,2-dihydro-3H,7H-spiro[benzofuro[6,7-d]imidazole-6,4'-piperidin]-3-yl)piperidine-2,6-dione]",24,33,–,–,–,–
"O=C1CCC(Nc2ccc3c(c2)OC2(CC3)CNC2)C(=O)N1 (stereo not shown) [Compound C7, 3-(Spiro[azetidin-3,2'-chroman]-7'-ylamino)piperidine-2,6-dione]",–,–,–,–,10.2,–
Nc1nnc(-c2ccccc2O)cc1C#CC1CCC2(CC1)CC(N1CCC3(CC1)COc1cc(F)c(C(=O)N[C@H]4CCC(=O)NC4=O)cc13)C2 (stereo partly shown) [SM-P-21],15,4,-12,14,–,–
"COc1cc2c(cc1C(=O)N[C@H]1CCC(=O)NC1=O)C1(CCN(C3CC4(CCC(C#Cc5cc(-c6ccccc6O)nnc5N)CC4)C3)CC1)CO2 (stereo partly drawn) [SM-P-14, (S)-1'-(7-((3-amino-6-(2-hydroxyphenyl)pyridazin-4-yl)ethynyl)spiro[3.5]nonan-2-yl)-N-(2,6-dioxopiperidin-3-yl)-6-methoxy-2H-spiro[benzofuran-3,4'-piperidin]-5-carboxamide]",-7,-3,22,14,–,–
"O=C1CC[C@H](NC(=O)c2cc3c(cc2F)OCC32CCNCC2)C(=O)N1 [Compound A3, (S)-N-(2,6-dioxopiperidin-3-yl)-6-fluoro-2H-spiro[benzofuran-3,4'-piperidine]-5-carboxamide]",–,–,–,–,52.8,–
